Test results from patent US20230364070A1, “PYRROLO[3,2-C]PYRIDIN-4-ONE DERIVATIVES USEFUL IN THE TREATMENT OF CANCER” (Scorpion Therapeutics, Inc., priority 2020, published 2023).

What was measured:
Type in all cases: cell-based
[1] = molecular target: T1, pEGFR in Ba/F3 cells expressing EGFR exon 20 NPG Ins D770_N771 (Homo sapiens, UniProt P00533, INS770NPG); assay: Inhibitor activity on EGFR phosphorylation (pEGFR AlphaLISA, 2 h), Ba/F3 EGFR exon 20 NPG insertion; details: Ba/F3 EGFR exon 20 NPG Ins D770_N771
T1 construct: expressed in transfected cells; host or cells: Ba/F3 (murine pro-B cells), retroviral transduction, puromycin selection, IL3-independent pool

[2] = molecular target: T2, pEGFR in Ba/F3 cells expressing EGFR exon 20 ASV Ins V769_D770 (Homo sapiens, UniProt P00533, INS769ASV); assay: Inhibitor activity on EGFR phosphorylation (pEGFR AlphaLISA, 2 h), Ba/F3 EGFR exon 20 ASV insertion; details: Ba/F3 EGFR exon 20 ASV Ins V769_D770
T2 construct: expressed in transfected cells; host or cells: Ba/F3 (murine pro-B cells), retroviral transduction, puromycin selection, IL3-independent pool

[3] = molecular target: T3, pEGFR in CUTO14 cells (Homo sapiens, UniProt P00533, DUP767-769); assay: Inhibitor activity on EGFR phosphorylation (pEGFR AlphaLISA, 2 h), CUTO14 cells
T3 construct: endogenous in cells; host or cells: CUTO14 cells
Experimental: CUTO14 cells were obtained from Dr. Robert C. Doebele at the University of Colorado.
Shake 350 rpm for 1 hr in the dark • 3.4 Prepare donor mix under low light conditions prior to use. Dispense 5 μL of donor mix to all the wells. Mix well on the shaker, seal and wrap in aluminum foil and incubate 1.5 hrs at room temperature in the dark • 3.5 Transfer 18.5 μL mixture to OptiPlate 384, and read using an Envision.

[4] = molecular target: T4, Ba/F3 cells with EGFR exon 20 NPG Ins D770_N771 (Homo sapiens, UniProt P00533, INS770NPG); assay: EGFR activity: Ba/F3 cell viability (CellTiter-Glo, 72 h), EGFR exon 20 NPG insertion; details: EGFR exon 20 NPG Ins D770_N771, cell viability, read-out: BaF3 NPG IC50
T4 construct: expressed in transfected cells; host or cells: Ba/F3 (murine pro-B cells), retroviral transduction, puromycin selection, IL3-independent pool

[5] = molecular target: T5, Ba/F3 cells with EGFR exon 20 ASV Ins V769_D770 (Homo sapiens, UniProt P00533, INS769ASV); assay: EGFR activity: Ba/F3 cell viability (CellTiter-Glo, 72 h), EGFR exon 20 ASV insertion; details: EGFR exon 20 ASV Ins V769_D770, cell viability, read-out: BaF3 ASV IC50
T5 construct: expressed in transfected cells; host or cells: Ba/F3 (murine pro-B cells), retroviral transduction, puromycin selection, IL3-independent pool

[6] = molecular target: T6, Ba/F3 cells with EGFR WT (Homo sapiens, UniProt P00533); assay: EGFR activity: Ba/F3 cell viability (CellTiter-Glo, 72 h), EGFR WT; details: read-out: BaF3 WT IC50
T6 construct: expressed in transfected cells; host or cells: Ba/F3 (murine pro-B cells), retroviral transduction, puromycin selection, maintained with EGF
T6 sequence (P00533 25-1210): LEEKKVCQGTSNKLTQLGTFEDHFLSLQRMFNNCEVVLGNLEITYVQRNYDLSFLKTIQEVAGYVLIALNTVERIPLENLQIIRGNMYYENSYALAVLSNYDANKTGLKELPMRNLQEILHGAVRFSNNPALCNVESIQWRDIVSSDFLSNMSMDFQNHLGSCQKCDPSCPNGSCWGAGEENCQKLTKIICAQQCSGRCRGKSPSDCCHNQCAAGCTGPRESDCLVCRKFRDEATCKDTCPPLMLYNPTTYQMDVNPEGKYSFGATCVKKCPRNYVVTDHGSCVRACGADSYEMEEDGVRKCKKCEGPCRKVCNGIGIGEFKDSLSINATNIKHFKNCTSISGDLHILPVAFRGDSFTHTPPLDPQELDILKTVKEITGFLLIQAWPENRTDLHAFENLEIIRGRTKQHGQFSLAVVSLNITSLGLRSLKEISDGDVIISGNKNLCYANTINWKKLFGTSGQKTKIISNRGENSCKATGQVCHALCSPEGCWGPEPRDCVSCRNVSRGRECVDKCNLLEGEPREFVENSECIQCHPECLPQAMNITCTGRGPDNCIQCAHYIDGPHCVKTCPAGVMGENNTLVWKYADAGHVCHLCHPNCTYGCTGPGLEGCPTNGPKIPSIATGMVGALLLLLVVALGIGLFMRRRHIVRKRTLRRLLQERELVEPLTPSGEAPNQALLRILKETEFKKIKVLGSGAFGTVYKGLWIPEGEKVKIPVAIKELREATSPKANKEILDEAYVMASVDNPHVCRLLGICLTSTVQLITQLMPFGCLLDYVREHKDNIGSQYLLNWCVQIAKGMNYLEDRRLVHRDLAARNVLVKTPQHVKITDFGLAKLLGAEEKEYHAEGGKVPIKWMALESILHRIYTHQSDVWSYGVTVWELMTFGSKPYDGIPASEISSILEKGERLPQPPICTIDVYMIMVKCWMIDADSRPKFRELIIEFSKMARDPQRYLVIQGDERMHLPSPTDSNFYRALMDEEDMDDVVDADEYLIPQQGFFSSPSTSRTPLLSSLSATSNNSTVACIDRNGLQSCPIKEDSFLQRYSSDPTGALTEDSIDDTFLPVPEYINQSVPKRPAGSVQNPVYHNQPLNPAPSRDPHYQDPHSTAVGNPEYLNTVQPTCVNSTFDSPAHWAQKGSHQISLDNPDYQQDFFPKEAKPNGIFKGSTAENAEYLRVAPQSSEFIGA

T2 sequence (P00533 with tags, fused parts or gaps INS769ASV): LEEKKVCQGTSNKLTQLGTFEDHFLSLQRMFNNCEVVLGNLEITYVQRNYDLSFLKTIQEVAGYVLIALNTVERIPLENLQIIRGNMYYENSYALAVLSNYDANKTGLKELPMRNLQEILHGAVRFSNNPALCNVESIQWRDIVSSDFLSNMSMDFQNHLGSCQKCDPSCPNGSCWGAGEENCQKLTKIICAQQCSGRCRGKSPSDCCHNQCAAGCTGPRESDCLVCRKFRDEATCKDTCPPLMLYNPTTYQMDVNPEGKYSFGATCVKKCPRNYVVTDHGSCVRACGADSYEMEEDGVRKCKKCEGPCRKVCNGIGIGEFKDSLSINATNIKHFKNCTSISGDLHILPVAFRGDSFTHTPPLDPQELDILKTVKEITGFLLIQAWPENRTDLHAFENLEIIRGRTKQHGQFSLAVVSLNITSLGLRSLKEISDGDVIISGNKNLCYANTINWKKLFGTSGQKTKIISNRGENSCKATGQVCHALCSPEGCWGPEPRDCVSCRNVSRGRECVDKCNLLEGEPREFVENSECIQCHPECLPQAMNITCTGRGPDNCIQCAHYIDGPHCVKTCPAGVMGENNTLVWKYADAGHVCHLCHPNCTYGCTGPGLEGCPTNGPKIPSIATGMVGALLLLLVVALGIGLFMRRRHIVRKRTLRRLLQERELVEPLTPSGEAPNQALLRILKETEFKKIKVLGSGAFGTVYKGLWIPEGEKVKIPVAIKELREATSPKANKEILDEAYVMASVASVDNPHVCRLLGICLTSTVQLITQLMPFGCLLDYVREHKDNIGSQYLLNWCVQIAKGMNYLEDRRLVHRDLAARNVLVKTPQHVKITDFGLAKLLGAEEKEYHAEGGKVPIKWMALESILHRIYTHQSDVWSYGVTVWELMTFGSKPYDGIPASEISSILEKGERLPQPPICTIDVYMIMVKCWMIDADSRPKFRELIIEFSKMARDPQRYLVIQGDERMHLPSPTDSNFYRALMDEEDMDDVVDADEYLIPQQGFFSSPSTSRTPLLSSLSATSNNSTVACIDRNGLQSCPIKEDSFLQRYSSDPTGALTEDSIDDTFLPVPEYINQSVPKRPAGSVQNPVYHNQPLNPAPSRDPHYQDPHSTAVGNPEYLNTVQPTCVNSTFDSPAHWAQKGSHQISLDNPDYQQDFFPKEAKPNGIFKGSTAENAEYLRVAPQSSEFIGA
T3 sequence (P00533 with tags, fused parts or gaps DUP767-769): as the sequence (P00533 with tags, fused parts or gaps INS769ASV) above
T5 sequence (P00533 with tags, fused parts or gaps INS769ASV): as above

## C=CC(=O)N1CC[C@H]1COc1cnccc1-c1[nH]c2c(c1Nc1cccc(Cl)c1OC)C(=O)NCC2 [145b, 3-[(3-chloro-2-methoxyphenyl)amino]-2-(3-[[(2S)-1-(prop-2-enoyl)azetidin-2-yl]methoxy]pyridin-4-yl)-1H,5H,6H,7H-pyrrolo[3,2-c]pyridin-4-one]
[1]
  IC50: < 100 nM
[2]
  IC50: < 100 nM
[3]
  IC50: < 100 nM

## COc1c(F)cccc1Nc1c(-c2ccncc2OCC2CCn3ccnc32)[nH]c2c1C(=O)NCC2 (centres unmarked) [Compound 124, 3-[(3-fluoro-2-methoxyphenyl)amino]-2-(3-[5H,6H,7H-pyrrolo[1,2-a]imidazol-7-ylmethoxy]pyridin-4-yl)-1H,5H,6H,7H-pyrrolo[3,2-c]pyridin-4-one]
[1]
  IC50: < 100 nM
[2]
  IC50: 100 to 1000 nM
[4]
  IC50: > 1000 nM
[5]
  IC50: 100 to 1000 nM
[6]
  IC50: > 1000 nM

## COc1c(F)cccc1Nc1c(-c2ccncc2OCc2csc3nccn23)[nH]c2c1C(=O)NCC2 [Compound 130, 3-[(3-fluoro-2-methoxyphenyl)amino]-2-(3-[imidazo[2,1-b][1,3]thiazol-3-ylmethoxy]pyridin-4-yl)-1H,5H,6H,7H-pyrrolo[3,2-c]pyridin-4-one]
[2]
  IC50: > 1000 nM
[4]
  IC50: > 1000 nM
[5]
  IC50: > 1000 nM
[6]
  IC50: > 1000 nM

## C=CC(=O)N1CCC[C@@H]1COc1cnccc1-c1[nH]c2c(c1Nc1cccc(F)c1C)C(=O)NCC2 [Compound 140, (R)-2-(3-((1-acryloylpyrrolidin-2-yl)methoxy)pyridin-4-yl)-3-((3-fluoro-2-methylphenyl)amino)-1,5,6,7-tetrahydro-4H-pyrrolo[3,2-c]pyridin-4-one]
[1]
  IC50: < 100 nM
[2]
  IC50: < 100 nM
[4]
  IC50: < 100 nM
[5]
  IC50: < 100 nM
[3]
  IC50: < 100 nM
[6]
  IC50: 100 to 1000 nM

## COc1c(F)cccc1Nc1c(-c2ccncc2OCc2cnc3n2CCC3)[nH]c2c1C(=O)NCC2 [Compound 150, 2-(3-((6,7-dihydro-5H-pyrrolo[1,2-a]imidazol-3-yl)methoxy)pyridin-4-yl)-3-((3-fluoro-2-methoxyphenyl)amino)-1,5,6,7-tetrahydro-4H-pyrrolo[3,2-c]pyridin-4-one]
[2]
  IC50: < 100 nM
[4]
  IC50: > 1000 nM
[5]
  IC50: 100 to 1000 nM
[6]
  IC50: > 1000 nM

## COc1c(F)cccc1Nc1c(-c2ccncc2OCc2ncco2)[nH]c2c1C(=O)NCC2 [Compound 474, 3-[(3-fluoro-2-methoxyphenyl)amino]-2-[3-(1,3-oxazol-2-ylmethoxy)pyridin-4-yl]-1H,5H,6H,7H-pyrrolo[3,2-c]pyridin-4-one]
[2]
  IC50: < 100 nM
[4]
  IC50: > 1000 nM
[5]
  IC50: 100 to 1000 nM
[6]
  IC50: 100 to 1000 nM

## COc1c(F)cccc1Nc1c(-c2ccncc2OCc2cccn3ccnc23)[nH]c2c1C(=O)NCC2 [Compound 475, 3-[(3-fluoro-2-methoxyphenyl)amino]-2-(3-[imidazo[1,2-a]pyridin-8-ylmethoxy]pyridin-4-yl)-1H,5H,6H,7H-pyrrolo[3,2-c]pyridin-4-one]
[1]
  IC50: < 100 nM
[2]
  IC50: < 100 nM
[4]
  IC50: 100 to 1000 nM
[5]
  IC50: 100 to 1000 nM
[6]
  IC50: 100 to 1000 nM

## COc1c(F)cccc1Nc1c(-c2ccncc2OCc2ncc(C)cn2)[nH]c2c1C(=O)NCC2 [Compound 477, 3-[(3-fluoro-2-methoxyphenyl)amino]-2-[3-[(5-methylpyrimidin-2-yl)methoxy]pyridin-4-yl]-1H,5H,6H,7H-pyrrolo[3,2-c]pyridin-4-one]
[1]
  IC50: < 100 nM
[2]
  IC50: < 100 nM
[4]
  IC50: < 100 nM
[6]
  IC50: < 100 nM

## COc1c(F)cccc1Nc1c(-c2ccncc2OCc2ccncn2)[nH]c2c1C(=O)NCC2 [Compound 478, 3-[(3-fluoro-2-methoxyphenyl)amino]-2-[3-(pyrimidin-4-ylmethoxy)pyridin-4-yl]-1H,5H,6H,7H-pyrrolo[3,2-c]pyridin-4-one]
[1]
  IC50: < 100 nM
[2]
  IC50: < 100 nM
[4]
  IC50: < 100 nM
[5]
  IC50: < 100 nM
[6]
  IC50: 100 to 1000 nM

## COc1c(F)cccc1Nc1c(-c2ccncc2OCc2ccnn2C)[nH]c2c1C(=O)NCC2 [Compound 480, 3-[(3-fluoro-2-methoxyphenyl)amino]-2-[3-[(2-methylpyrazol-3-yl)methoxy]pyridin-4-yl]-1H,5H,6H,7H-pyrrolo[3,2-c]pyridin-4-one]
[1]
  IC50: < 100 nM
[2]
  IC50: 100 to 1000 nM
[4]
  IC50: > 1000 nM
[5]
  IC50: > 1000 nM
[6]
  IC50: > 1000 nM

## COc1c(F)cccc1Nc1c(-c2ccncc2OCc2cn3ccccc3n2)[nH]c2c1C(=O)NCC2 [Compound 481, 3-[(3-fluoro-2-methoxyphenyl)amino]-2-(3-[imidazo[1,2-a]pyridin-2-ylmethoxy]pyridin-4-yl)-1H,5H,6H,7H-pyrrolo[3,2-c]pyridin-4-one]
[2]
  IC50: < 100 nM
[4]
  IC50: > 1000 nM
[5]
  IC50: < 100 nM
[6]
  IC50: 100 to 1000 nM

## COc1c(F)cccc1Nc1c(-c2ccncc2OCCc2ccco2)[nH]c2c1C(=O)NCC2 [Compound 483, 3-[(3-fluoro-2-methoxyphenyl)amino]-2-[3-[2-(furan-2-yl)ethoxy]pyridin-4-yl]-1H,5H,6H,7H-pyrrolo[3,2-c]pyridin-4-one]
[1]
  IC50: < 100 nM
[2]
  IC50: < 100 nM
[4]
  IC50: < 100 nM
[5]
  IC50: 100 to 1000 nM
[6]
  IC50: 100 to 1000 nM

## C=CC(=O)NC1(C#Cc2cnccc2-c2[nH]c3c(c2Nc2cccc(Cl)c2OC)C(=O)NCC3)CC1 [compound 207, N-{1-[2-(4-{3-[(3-chloro-2-methoxyphenyl)amino]-4-oxo-1H,5H,6H,7H-pyrrolo[3,2-c]pyridin-2-yl}pyridin-3-yl)ethynyl]cyclopropyl}prop-2-enamide]
[1]
  IC50: < 100 nM
[2]
  IC50: < 100 nM
[3]
  IC50: < 100 nM

## CC#CC(=O)N1CC[C@@H]1COc1cnccc1-c1[nH]c2c(c1Nc1cccc(Cl)c1OC)C(=O)NCC2 [compound 227]
[1]
  IC50: < 100 nM
[4]
  IC50: < 100 nM
[5]
  IC50: < 100 nM
[3]
  IC50: < 100 nM
[6]
  IC50: 100 to 1000 nM

## COc1c(Cl)cccc1Nc1c(-c2ccncc2C#CC2CC2)[nH]c2c1C(=O)NCC2 [compound 488]
[2]
  IC50: < 100 nM
[4]
  IC50: < 100 nM
[5]
  IC50: < 100 nM
[6]
  IC50: 100 to 1000 nM

## COc1c(Cl)cccc1Nc1c(-c2ccncc2C#CC2(C)COC2)[nH]c2c1C(=O)NCC2 [compound 490]
[2]
  IC50: < 100 nM
[5]
  IC50: 100 to 1000 nM
[6]
  IC50: > 1000 nM

## C=CC(=O)NC(C)(C)C#Cc1cnccc1-c1[nH]c2c(c1Nc1cccc(Cl)c1OC)C(=O)NCC2 [compound 492, N-[4-(4-{3-[(3-chloro-2-methoxyphenyl)amino]-4-oxo-1H,5H,6H,7H-pyrrolo[3,2-c]pyridin-2-yl}pyridin-3-yl)-2-methylbut-3-yn-2-yl]prop-2-enamide]
[1]
  IC50: < 100 nM
[3]
  IC50: < 100 nM

## C=CC(=O)N1CC(F)(F)C[C@@H]1C#Cc1cnccc1-c1[nH]c2c(c1Nc1cccc(Cl)c1OC)C(=O)NCC2 [compound 519, 3-[(3-chloro-2-methoxyphenyl)amino]-2-(3-[2-[(2R)-4,4-difluoro-1-(prop-2-enoyl)pyrrolidin-2-yl]ethynyl]pyridin-4-yl)-1H,5H,6H,7H-pyrrolo[3,2-c]pyridin-4-one]
[1]
  IC50: < 100 nM
[2]
  IC50: < 100 nM
[3]
  IC50: < 100 nM

## COc1c(Cl)cccc1Nc1c(-c2ccncc2C#CC2(C(F)(F)F)CC2)[nH]c2c1C(=O)NCC2 [compound 528, 3-[(3-chloro-2-methoxyphenyl)amino]-2-(3-[2-[1-(trifluoromethyl)cyclopropyl]ethynyl]pyridin-4-yl)-1H,5H,6H,7H-pyrrolo[3,2-c]pyridin-4-one]
[1]
  IC50: < 100 nM
[2]
  IC50: < 100 nM
[3]
  IC50: < 100 nM
